One compound from patent US9849127B2, “Means and methods for treating cancer” (Medizinische Hochschule Hannover, priority 2013, dated 2017) can be followed below.

Series [1] relates to IDH1mut cancer cells. Briefly: Alamar blue cell viability assay, IDH1mut cells. Type of series: cell-based. The procedure: (§1) FIG. 1: IC50 values for IDH1wt and IDH1mut treated with compound HMS-101 for 72 hours.
(Resazurin is reduced to fluorescent resorufin, in cell work by metabolically active cells.)

In series [2] the test system is IDH1wt cells. Nature of the series: Alamar blue cell viability assay, IDH1wt cells. Type of series: cell-based. The conditions noted are these: IDH1wt cells in vitro, treated for 72 hours. Here is the method:
as §1

In series [3] the test system is IDH1 mutant enzyme. Briefly: Intracellular 2HG levels in IDH1mutant cells (neomorphic activity). Type of series: cell-based. The conditions noted are these: 72 hours, 10 μM, versus control treated cells. The text has this:
FIG. 2: D-2HG levels from IDH1mut cells treated with compound HMS-101 (drug) or solvent control.

Series [4] deals with primary human AML cells harboring the IDH1 mutation. Briefly: Colony forming assay of primary human AML cells. Type of series: cell-based. Particulars: IDH1-mutated primary human AML cells compared to AML cells with wildtype IDH1 and CD34+ cells from healthy donors. An excerpt:
FIG. 3: Colony forming assay of primary human AML cells with and without IDH1 mutation treated with solvent control (DMSO) or compound HMS-101. Human CD34^+ hematopoietic stem and progenitor cells from healthy donors were used as controls.

The test system is the same in series [5]. Nature of the series: Rate of apoptosis of primary human AML cells. Type of series: cell-based. Particulars: IDH1-mutated primary human AML cells compared to AML cells with wildtype IDH1 and CD34+ cells from healthy donors. An excerpt:
FIG. 4: Rate of apoptosis of primary human AML cells with and without IDH1 mutation treated with solvent control (DMSO) or compound HMS-101. Human CD34^+ hematopoietic stem and progenitor cells from healthy donors were used as controls.

A short description of series [6]: Toxicity testing in animals. Type of series: in vivo. Particulars: mice, 1 mg intraperitoneally daily for two weeks. Here is the method:
The compound described herein has been given to mice at a dose of 1 mg intraperitoneally daily for two weeks.

For series [7], the system named is HoxA9 immortalized bone marrow cells expressing IDH1R132C. Nature of the series: Survival of mice transplanted with HoxA9 immortalized IDH1R132C bone marrow cells. The conditions noted are these: 1 mg/mouse 5 days/week starting 5 days after transplantation, versus PBS; follow-up ongoing. Type of series: in vivo. Here is the method:
FIG. 5: Survival of mice treated with HMS-101.
HoxA9 immortalized bone marrow cells from C57BL/6J mice were transduced with retroviral vectors expressing IDH1R132C and GFP. One million GFP-expressing sorted cells were injected intravenously in lethally-irradiated syngeneic recipient mice, accompanied by a life-sparing dose of 1×10^5 freshly isolated bone marrow cells from syngeneic mice. One cohort of mice was treated with HMS-101 at a dose of 1 mg/mouse for 5 days/week starting 5 days after transplantation. The control cohort was treated with PBS for 5 days/week starting 5 days after transplantation. The solid line represents the survival of PBS-treated mice, the dotted line represents the survival of HMS-101-treated mice. Follow-up and treatment are ongoing.

In series [8] the test system is R-2-hydroxyglutarate (R-2HG). Briefly: Ratio R-2HG/S-2HG in serum of treated mice. Type of series: in vivo. The conditions noted are these: treated mice versus PBS, 9 weeks after treatment, pooled serum. The text has this: FIG. 6: Ratio of R-2-hydroxyglutarate (R-2HG) to S-2-hydroxyglutarate (S-2HG) in serum from mice treated with HMS-101 or solvent control (PBS) at 9 weeks after treatment. Serum from 3 mice were pooled per indicated measurement (9 mice for PBS, 12 mice for HMS-101).
2-hydroxyglutarate (R-2HG), in particular elevated values thereof, typically measured in terms of the ratio between R- and S-form (R-2HG/S-2HG) is a marker for leukemia in accordance with the present invention. […] This establishes both the usefulness of the mentioned ratio as a marker for leukemia and the beneficial effects of HMS-101.

Broadly, the IC50 is the concentration that gives 50% inhibition. As for `CN1CCN(C)[C@H](CCN2CC[C@H](c3ccc(F)cc3)C2)C1` [HMS-101], in series [1] (72 hours), the “IC50 on IDH1wt cells relative to IDH1mut cells” value amounted to 12 times. Moreover, the IC50 in series [1] (IDH1mut cancer cells in vitro, treated for 72 hours) was 1 µM; in series [2] it was 12 µM. For the same compound, in series [3], the “intracellular 2HG levels (D-2HG)” value is given as “dramatically reduced”. The colony forming potential entry in series [4] was “reduced the colony forming potential”. For the same compound, the rate of apoptosis result in series [5] is given as “increased the rate of apoptosis”. Further, the “tolerability / visible signs of toxicity” value in series [6] is given as “well tolerated by the animals with no visible signs of toxicity”. Also, in series [7], the survival result is reported as “survival benefit”. In addition, the “ratio R-2HG/S-2HG in serum” value in series [8] is recorded as “decrease of the ratio R-2HG/S-2HG”.
